We go through three molecules from paper PMC6834594, “Structure and regulation of ZCCHC4 in m^6A-methylation of 28S rRNA” (Nature Communications, 2019).

Series [1] addresses T1, ZCCHC4_24-513 (Homo sapiens, UniProt Q9H5U6).
T1 construct: gene ZCCHC4; residues 24-513; His6-SUMO tag cleaved by ULP1; E. coli BL21(DE3) RIL; monomer in solution
T1 sequence (Q9H5U6 24-513): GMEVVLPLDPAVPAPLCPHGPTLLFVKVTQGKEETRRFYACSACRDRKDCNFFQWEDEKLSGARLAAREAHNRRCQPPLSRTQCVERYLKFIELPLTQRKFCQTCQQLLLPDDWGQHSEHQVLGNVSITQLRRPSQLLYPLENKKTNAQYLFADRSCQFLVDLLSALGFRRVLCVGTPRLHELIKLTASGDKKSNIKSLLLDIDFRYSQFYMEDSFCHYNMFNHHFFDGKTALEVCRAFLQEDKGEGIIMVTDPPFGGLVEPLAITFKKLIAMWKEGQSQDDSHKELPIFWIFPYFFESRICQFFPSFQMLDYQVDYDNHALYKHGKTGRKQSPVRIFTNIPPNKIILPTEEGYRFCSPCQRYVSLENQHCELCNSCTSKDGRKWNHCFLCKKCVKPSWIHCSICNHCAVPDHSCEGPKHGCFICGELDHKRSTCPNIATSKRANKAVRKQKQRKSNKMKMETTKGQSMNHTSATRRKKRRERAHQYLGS
The series can be described thus: isothermal titration calorimetry. In kind it is binding. On the technique in general: Isothermal titration calorimetry measures the heat released or taken up as one component is titrated into another.

Series [2] has as its target T2, ZCCHC4_24-513 (Homo sapiens, UniProt Q9H5U6, H343A).
T2 construct: gene ZCCHC4; residues 24-513; His6-SUMO tag cleaved by ULP1; E. coli BL21(DE3) RIL; monomer in solution
T2 sequence (Q9H5U6 24-513 H343A): T1 sequence (Q9H5U6 24-513) with H320A
Briefly: isothermal titration calorimetry. In kind it is binding.

The target in series [3] is T3, ZCCHC4_24-464 (Homo sapiens, UniProt Q9H5U6, K55A/E56A/E57A/K167A/K168A).
T3 construct: gene ZCCHC4; core fragment, residues 24-464, five surface mutations for crystallization; His6-SUMO tag cleaved by ULP1; E. coli BL21(DE3) RIL
T3 sequence (Q9H5U6 24-464 K55A/E56A/E57A/K167A/K168A): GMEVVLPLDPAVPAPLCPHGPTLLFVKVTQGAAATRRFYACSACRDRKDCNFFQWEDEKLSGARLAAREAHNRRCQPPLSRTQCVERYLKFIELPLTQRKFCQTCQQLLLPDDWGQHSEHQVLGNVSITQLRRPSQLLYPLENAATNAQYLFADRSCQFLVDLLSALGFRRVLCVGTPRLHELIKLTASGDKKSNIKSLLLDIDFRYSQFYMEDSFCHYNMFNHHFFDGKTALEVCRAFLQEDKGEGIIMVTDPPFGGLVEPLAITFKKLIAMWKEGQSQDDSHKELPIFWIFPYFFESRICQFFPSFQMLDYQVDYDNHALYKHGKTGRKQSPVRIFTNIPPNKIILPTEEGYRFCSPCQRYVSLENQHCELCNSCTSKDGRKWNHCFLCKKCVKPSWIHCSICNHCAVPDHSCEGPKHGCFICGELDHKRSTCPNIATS
Briefly: X-ray crystal structure, […] Å. In kind it is binding. To be noted: cofactor pocket of the MTase domain; no RNA.

Series [4] has as its target T4, ZCCHC4 24-464 WT (core) (human, UniProt Q9H5U6 24-464).
T4 sequence: T3 sequence (Q9H5U6 24-464 K55A/E56A/E57A/K167A/K168A) with A32K, A33E, A34E, A144K, A145K
The series can be described thus: EMSA; EMSA: 20 mM Tris-HCl pH 7.5, 100 mM NaCl, 5% glycerol, 1 mM DTT, 4 C, 1 h; 0.3 uM RNA with 0-1.2 uM protein unless noted; 6% TBE native gel. To be noted: protein: recombinant; tags: His6-SUMO removed by ULP1; label: none (SYBR Gold stain); stem-loop with tail. A general note: A gel shift assay detects complexes by their altered migration in electrophoresis.

Changes are numbered by the printed parent chain.

A word on the Kd: it is the constant that tells how readily two partners part at equilibrium. Read a high Kd as lower affinity.

Take `C[S+](CC[C@H](N)C(=O)O)C[C@H]1O[C@@H](n2cnc3c(N)ncnc32)[C@H](O)[C@@H]1O` (stereo partly shown) [SAM]: the Kd was determined as 6.7 µM in series [1] and 1.6 µM in series [2]. As to `Nc1ncnc2c1ncn2[C@@H]1O[C@H](CSCC[C@H](N)C(=O)O)[C@@H](O)[C@H]1O` [SAH], in series [3], the “X-ray crystal structure, 3.1 Å” value is given as “in complex with S-adenosyl-L-homocysteine (SAH)”.

B1: 30-mer 28S rRNA (structured_RNA)
RNA: CGGUACACCUGUCAAACGGUAACGCAGGUG
With B1, the binding result in series [4] is recorded as “binds”.
